Reference: paper PMC8213057, “Targeting ALK2: An Open Science Approach to Developing Therapeutics for the Treatment of Diffuse Intrinsic Pontine Glioma” (Journal of Medicinal Chemistry, 2020)

Assays:
[1] = target: c-Kit (Homo sapiens, UniProt P10721); settings: 1 μM; Run 1, Run 2
[2] = target: CDK2/cyclin E2 (Homo sapiens, UniProt P24941); settings: 1 μM; Run 1, Run 2
[3] = target: NIM1 (Homo sapiens, UniProt Q8IY84); settings: 1 μM; Run 1, Run 2
[4] = target: VRK2 (Homo sapiens, UniProt Q86Y07); assay: biochemical; settings: read-out: % enzyme activity, 1 μM; Run 1, Run 2
Sequence of VRK2 (Q86Y07 whole entry, species assumed): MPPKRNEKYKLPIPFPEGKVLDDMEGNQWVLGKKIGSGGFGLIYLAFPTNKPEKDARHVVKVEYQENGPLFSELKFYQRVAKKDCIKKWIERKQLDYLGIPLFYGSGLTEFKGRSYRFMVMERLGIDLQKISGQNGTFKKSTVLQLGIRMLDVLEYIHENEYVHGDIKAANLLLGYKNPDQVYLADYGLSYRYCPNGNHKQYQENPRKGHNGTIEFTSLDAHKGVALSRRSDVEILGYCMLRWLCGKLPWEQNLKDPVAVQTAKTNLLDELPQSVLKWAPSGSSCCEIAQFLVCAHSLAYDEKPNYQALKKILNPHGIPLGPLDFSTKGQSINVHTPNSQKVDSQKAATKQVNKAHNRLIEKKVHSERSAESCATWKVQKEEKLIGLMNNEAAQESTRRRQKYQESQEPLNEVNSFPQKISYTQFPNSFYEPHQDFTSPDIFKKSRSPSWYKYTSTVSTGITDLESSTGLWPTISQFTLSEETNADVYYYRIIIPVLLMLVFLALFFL

[5] = target: MELK (Homo sapiens, UniProt Q14680); settings: 1 μM; Run 1, Run 2
Sequence of MELK (Q14680 whole entry): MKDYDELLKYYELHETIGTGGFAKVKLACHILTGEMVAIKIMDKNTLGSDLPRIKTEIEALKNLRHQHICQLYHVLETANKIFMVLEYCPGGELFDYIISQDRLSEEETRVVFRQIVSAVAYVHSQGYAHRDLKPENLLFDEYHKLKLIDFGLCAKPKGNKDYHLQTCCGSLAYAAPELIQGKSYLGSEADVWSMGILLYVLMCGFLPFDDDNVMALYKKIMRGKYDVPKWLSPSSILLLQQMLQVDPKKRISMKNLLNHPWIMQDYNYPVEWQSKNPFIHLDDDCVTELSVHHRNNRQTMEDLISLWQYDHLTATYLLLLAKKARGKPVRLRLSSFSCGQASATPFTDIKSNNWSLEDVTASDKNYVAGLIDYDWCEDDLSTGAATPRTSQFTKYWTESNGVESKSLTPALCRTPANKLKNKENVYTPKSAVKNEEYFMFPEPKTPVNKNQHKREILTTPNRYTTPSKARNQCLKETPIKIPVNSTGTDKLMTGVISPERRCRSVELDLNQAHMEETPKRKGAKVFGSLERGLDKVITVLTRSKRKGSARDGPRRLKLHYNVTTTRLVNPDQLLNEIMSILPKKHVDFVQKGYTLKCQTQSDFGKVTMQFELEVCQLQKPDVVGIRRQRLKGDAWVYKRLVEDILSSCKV

[6] = target: CLK4 (Homo sapiens, UniProt Q9HAZ1); assay: biochemical; settings: read-out: % enzyme activity, 1 μM; Run 1, Run 2
Sequence of CLK4 (Q9HAZ1 whole entry): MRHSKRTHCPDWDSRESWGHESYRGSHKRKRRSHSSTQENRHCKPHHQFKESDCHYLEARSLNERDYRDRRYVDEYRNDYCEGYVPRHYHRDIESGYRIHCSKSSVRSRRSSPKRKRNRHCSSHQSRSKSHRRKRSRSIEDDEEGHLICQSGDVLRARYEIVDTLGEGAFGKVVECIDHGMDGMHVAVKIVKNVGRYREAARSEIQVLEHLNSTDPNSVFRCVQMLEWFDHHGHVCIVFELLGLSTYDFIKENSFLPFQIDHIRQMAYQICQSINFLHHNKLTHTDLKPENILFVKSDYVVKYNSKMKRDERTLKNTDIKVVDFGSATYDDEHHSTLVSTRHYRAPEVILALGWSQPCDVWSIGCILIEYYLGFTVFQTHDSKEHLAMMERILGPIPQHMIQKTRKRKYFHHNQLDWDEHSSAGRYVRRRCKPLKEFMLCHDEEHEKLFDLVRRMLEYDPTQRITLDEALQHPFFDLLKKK

[7] = target: SBK1 (Homo sapiens, UniProt Q52WX2); settings: 1 μM; Run 1, Run 2
Sequence of SBK1 (Q52WX2 whole entry): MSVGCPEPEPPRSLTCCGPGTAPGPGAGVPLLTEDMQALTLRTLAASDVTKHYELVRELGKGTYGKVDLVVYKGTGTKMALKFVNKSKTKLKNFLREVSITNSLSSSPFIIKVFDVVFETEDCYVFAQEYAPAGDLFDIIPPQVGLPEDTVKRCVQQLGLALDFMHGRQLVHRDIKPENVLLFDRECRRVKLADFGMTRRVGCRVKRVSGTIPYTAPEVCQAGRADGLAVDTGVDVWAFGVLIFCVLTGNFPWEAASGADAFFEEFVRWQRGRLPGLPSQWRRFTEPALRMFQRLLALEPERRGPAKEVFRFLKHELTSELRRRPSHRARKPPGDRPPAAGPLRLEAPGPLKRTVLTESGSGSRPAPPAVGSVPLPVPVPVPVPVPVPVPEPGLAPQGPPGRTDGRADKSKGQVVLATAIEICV

[8] = target: T1, ASK1/MAP3K5 (Homo sapiens, UniProt Q99683); settings: 1 μM; Run 1, Run 2
T1 sequence (Q99683 1-1374): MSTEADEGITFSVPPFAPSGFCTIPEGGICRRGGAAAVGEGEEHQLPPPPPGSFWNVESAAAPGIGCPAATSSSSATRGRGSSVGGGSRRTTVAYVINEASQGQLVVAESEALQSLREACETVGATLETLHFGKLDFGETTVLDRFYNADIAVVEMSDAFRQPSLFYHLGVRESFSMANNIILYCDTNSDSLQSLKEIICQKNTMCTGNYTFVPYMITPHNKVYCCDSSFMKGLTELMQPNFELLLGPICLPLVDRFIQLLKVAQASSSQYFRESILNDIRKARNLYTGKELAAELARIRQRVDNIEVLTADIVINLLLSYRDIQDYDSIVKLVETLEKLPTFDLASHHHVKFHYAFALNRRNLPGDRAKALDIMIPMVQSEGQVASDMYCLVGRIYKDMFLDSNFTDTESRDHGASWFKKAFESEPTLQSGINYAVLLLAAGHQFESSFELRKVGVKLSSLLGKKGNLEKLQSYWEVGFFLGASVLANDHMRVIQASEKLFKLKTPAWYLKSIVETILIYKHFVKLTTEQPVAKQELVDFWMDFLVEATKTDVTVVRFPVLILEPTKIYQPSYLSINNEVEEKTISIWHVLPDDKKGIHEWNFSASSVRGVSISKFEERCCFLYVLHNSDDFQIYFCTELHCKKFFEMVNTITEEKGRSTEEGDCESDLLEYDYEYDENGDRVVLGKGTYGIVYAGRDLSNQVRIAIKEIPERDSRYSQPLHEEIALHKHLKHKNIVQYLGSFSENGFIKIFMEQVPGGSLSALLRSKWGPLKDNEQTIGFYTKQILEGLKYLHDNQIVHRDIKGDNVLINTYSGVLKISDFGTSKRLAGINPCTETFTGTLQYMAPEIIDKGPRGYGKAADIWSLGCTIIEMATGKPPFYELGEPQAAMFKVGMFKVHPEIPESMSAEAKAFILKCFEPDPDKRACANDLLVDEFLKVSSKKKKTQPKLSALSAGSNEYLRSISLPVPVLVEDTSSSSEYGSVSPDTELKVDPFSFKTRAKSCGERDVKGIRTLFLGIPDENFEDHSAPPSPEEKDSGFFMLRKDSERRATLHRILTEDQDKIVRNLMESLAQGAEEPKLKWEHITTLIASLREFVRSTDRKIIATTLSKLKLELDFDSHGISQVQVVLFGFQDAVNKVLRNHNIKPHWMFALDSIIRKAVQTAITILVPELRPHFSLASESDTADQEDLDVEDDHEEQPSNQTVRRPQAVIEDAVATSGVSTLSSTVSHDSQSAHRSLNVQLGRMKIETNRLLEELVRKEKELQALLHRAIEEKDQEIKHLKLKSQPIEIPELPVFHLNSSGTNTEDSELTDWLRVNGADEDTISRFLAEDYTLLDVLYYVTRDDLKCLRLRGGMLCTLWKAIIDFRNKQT

[9] = target: T2, TBK1 (Homo sapiens, UniProt Q9UHD2); settings: 1 μM; Run 1, Run 2
T2 sequence (Q9UHD2 1-729): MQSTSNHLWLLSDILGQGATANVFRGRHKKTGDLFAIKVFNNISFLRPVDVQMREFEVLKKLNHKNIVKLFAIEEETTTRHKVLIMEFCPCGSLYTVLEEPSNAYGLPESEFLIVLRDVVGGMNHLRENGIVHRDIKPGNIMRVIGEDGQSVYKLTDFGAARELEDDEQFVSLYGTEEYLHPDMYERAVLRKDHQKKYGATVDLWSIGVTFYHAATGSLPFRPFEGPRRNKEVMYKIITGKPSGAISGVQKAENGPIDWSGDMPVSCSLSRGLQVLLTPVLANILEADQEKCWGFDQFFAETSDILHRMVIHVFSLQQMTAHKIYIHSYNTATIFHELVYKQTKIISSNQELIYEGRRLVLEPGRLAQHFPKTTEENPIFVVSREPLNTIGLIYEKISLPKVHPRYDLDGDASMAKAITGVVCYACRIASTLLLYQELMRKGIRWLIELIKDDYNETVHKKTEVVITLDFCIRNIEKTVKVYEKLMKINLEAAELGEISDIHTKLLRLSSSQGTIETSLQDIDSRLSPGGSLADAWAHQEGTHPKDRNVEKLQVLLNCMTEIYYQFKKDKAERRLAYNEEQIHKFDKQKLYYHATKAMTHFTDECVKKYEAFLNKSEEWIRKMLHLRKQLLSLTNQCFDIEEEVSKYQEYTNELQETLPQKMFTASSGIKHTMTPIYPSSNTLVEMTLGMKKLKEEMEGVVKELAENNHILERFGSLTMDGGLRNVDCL

[10] = target: SRPK1 (Homo sapiens, UniProt Q96SB4); assay: biochemical; settings: read-out: % enzyme activity, 1 μM; Run 1, Run 2
Sequence of SRPK1 (Q96SB4 whole entry): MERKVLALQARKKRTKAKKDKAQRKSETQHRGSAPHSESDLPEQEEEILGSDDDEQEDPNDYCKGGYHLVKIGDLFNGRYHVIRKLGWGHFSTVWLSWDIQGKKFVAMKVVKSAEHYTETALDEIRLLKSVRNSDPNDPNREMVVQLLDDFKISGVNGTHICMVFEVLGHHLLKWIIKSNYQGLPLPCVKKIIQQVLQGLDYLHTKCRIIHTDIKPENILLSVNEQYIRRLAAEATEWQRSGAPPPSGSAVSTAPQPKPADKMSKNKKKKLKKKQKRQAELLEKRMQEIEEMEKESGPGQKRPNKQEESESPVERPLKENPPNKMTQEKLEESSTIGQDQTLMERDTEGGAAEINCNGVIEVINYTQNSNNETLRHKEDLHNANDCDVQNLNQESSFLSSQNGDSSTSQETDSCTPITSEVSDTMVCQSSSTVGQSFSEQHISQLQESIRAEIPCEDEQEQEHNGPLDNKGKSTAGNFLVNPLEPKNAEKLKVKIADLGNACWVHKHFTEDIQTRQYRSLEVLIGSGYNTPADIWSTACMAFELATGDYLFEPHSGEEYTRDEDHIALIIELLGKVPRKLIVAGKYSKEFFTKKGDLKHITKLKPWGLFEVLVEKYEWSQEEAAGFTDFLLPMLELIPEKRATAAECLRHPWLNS

[11] = target: MAPKAPK3 (Homo sapiens, UniProt Q16644); assay: biochemical; settings: read-out: % enzyme activity, 1 μM; Run 1, Run 2
Sequence of MAPKAPK3 (Q16644 whole entry): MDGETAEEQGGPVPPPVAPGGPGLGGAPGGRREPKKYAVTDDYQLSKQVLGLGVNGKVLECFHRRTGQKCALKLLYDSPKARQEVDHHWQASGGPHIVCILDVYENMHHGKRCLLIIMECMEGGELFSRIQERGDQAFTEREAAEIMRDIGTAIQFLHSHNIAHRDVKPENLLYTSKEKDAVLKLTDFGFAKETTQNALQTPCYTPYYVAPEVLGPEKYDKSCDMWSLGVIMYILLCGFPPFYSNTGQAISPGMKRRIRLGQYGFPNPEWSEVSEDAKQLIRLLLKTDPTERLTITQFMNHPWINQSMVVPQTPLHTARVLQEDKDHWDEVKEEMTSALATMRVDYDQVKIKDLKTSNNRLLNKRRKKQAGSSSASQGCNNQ

Sequence of NIM1 (Q8IY84 whole entry): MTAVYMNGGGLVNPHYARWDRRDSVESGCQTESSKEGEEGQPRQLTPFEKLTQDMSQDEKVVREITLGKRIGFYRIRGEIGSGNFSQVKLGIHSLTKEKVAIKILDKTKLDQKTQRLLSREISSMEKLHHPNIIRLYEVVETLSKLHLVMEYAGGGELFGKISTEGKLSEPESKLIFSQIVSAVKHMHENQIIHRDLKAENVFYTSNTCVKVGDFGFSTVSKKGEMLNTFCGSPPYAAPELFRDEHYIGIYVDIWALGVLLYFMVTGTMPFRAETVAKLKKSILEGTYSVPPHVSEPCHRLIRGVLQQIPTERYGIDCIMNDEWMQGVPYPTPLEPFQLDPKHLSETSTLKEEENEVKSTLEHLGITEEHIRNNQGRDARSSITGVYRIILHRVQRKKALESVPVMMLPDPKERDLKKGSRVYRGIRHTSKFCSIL
Sequence of c-Kit (P10721 26-976): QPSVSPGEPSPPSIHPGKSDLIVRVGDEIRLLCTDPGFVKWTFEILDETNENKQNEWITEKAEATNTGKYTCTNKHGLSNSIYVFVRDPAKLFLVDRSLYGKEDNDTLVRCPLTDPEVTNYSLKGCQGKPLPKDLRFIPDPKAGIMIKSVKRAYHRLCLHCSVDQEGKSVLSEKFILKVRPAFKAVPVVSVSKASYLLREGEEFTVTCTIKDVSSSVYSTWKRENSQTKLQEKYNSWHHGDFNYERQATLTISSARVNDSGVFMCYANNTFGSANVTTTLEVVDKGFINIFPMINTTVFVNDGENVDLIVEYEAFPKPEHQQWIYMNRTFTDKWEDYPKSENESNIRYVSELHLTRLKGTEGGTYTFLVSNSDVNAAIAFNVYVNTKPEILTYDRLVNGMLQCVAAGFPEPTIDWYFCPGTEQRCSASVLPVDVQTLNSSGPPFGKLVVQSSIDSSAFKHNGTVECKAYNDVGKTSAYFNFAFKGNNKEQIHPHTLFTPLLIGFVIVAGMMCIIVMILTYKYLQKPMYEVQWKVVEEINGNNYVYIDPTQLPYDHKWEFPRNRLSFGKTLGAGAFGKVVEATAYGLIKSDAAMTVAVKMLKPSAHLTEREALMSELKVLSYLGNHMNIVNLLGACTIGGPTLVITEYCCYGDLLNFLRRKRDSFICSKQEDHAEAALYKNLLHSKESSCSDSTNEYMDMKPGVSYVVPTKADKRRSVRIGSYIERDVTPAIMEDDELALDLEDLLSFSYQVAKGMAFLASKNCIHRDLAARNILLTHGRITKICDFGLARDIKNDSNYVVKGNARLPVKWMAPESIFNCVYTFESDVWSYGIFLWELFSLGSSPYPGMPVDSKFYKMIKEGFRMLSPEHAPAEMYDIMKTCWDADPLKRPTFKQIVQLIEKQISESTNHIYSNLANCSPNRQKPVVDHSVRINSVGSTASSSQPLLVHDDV

Row | SMILES | % enzyme activity [1] [%] | % enzyme activity [2] [%] | % enzyme activity [3] [%] | remaining activity at 1 µM [4] [%] | % enzyme activity [5] [%] | remaining activity at 1 µM [6] [%] | % enzyme activity [7] [%] | % enzyme activity [8] [%] | % enzyme activity [9] [%] | remaining activity at 1 µM [10] [%] | remaining activity at 1 µM [11] [%]
1 | COc1cc(-c2cncc(-c3ccc(N4CCN(C)CC4)cc3)c2C)cc(F)c1C(N)=O [Compound 26a, 2-Fluoro-6-methoxy-4-(4-methyl-5-(4-(4-methylpiperazin-1-yl)phenyl)pyridin-3-yl)benzamide] | 74.03 | 104.96 | 95.18 | 89.1 | 98.82 | 88.9 | 93.74 | 94.20 | 92.56 | 112 | 99.5
2 | COc1cc(-c2cncc(-c3ccc(N4C[C@@H](C)N(C)[C@@H](C)C4)cc3)c2C)cc(F)c1C(N)=O [Compound 26c, 2-Fluoro-6-methoxy-4-(4-methyl-5-(4-((3R,5S)-3,4,5-trimethylpiperazin-1-yl)phenyl)pyridin-3-yl)benzamide] | 74.89 | 93.14 | 97.81 | 92.5 | 99.30 | 92.6 | 101.08 | 96.09 | 85.62 | 89.3 | 97.2
